Where “and” joins values, the source holds several entries; their conditions need not be identical. Equal values may be shown once.
Tested on: HCV pseudoparticles
Test: HCV pseudoparticle (HCVpp) entry assay in Huh7 hepatoma cells, luciferase readout
Format: cell-based, hepatitis C virus
Settings: for % of control at ~30 uM: percentage of hepatitis C virus cellular entry at 30 μM peptide vs uninhibited control; for viral entry as a percentage of the uninhibited control: HCV entry, duplicates
Method in brief: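 Huh7 cells were pre-treated with peptide for 1 h at 37 °C before exposure to HCV E1/E2-pseudotyped HIV luciferase particles made in 293T cells, followed by 72 h culture and luciferase readout. Peptides were tested at 10 points, 3-fold, from 100 ug/ml; particles lacking envelope served as non-specific entry control.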

[1] = 0.1 nM of peptide (printed for three rows), two values per peptide and row
[2] = 0.3 nM of peptide, two values per peptide
[3] = 1 nM of peptide, two values per peptide
[4] = 3 nM of peptide, two values per peptide
[5] = 10 nM of peptide, two values per peptide
[6] = 30 nM of peptide, two values per peptide
[7] = 100 nM of peptide, two values per peptide
[8] = 300 nM of peptide, two values per peptide
[9] = 10000 nM of peptide, two values per peptide
[10] = 30000 nM of peptide, two values per peptide

A-I-K-W-E-Y-K-L-L-L-F-L-L (AIKWEYKLLLFLL; HCV peptide) [SEQ ID NO: 131]
% control (HCVpp entry), lysine scanning [1]: 97 % control and 80 % control and 94 % control and 96 % control and 113 % control
% control (HCVpp entry), lysine scanning [2]: 105 % control and 81 % control
% control (HCVpp entry), lysine scanning [3]: 85 % control and 68 % control
% control (HCVpp entry), lysine scanning [4]: 71 % control and 85 % control
% control (HCVpp entry), lysine scanning [5]: 74 % control and 66 % control
% control (HCVpp entry), lysine scanning [6]: 71 % control and 68 % control
% control (HCVpp entry), lysine scanning [7]: 49 % control and 62 % control
% control (HCVpp entry), lysine scanning [8]: 29 % control and 42 % control
% control (HCVpp entry), lysine scanning [9]: 16 % control and 14 % control
% control (HCVpp entry), lysine scanning [10]: 30 % control and 44 % control

A-I-K-W-E-Y-V-L-A-L-F-L-L (AIKWEYVLALFLL; HCV peptide) [SEQ ID NO: 94, Ala-scan]
% control (HCVpp entry), alanine scanning [1]: 99 % control and 96 % control and 79 % control and 101 % control and 115 % control and 105 % control
% control (HCVpp entry), alanine scanning [2]: 104 % control and 92 % control
% control (HCVpp entry), alanine scanning [3]: 81 % control and 82 % control
% control (HCVpp entry), alanine scanning [4]: 58 % control and 89 % control
% control (HCVpp entry), alanine scanning [5]: 79 % control and 86 % control
% control (HCVpp entry), alanine scanning [6]: 58 % control and 48 % control
% control (HCVpp entry), alanine scanning [7]: 45 % control and 41 % control
% control (HCVpp entry), alanine scanning [8]: 42 % control and 33 % control
% control (HCVpp entry), alanine scanning [9]: 36 % control and 34 % control
% control (HCVpp entry), alanine scanning [10]: 14 % control and 28 % control
% of control at ~30 uM: 17%

K-I-K-W-E-Y-V-L-L-L-F-L-L [SEQ ID NO: 101]
% control (HCVpp entry), lysine scanning [1]: 83 % control and 107 % control and 77 % control and 104 % control and 119 % control and 101 % control
% control (HCVpp entry), lysine scanning [2]: 96 % control and 103 % control
% control (HCVpp entry), lysine scanning [3]: 65 % control and 90 % control
% control (HCVpp entry), lysine scanning [4]: 52 % control and 77 % control
% control (HCVpp entry), lysine scanning [5]: 54 % control and 57 % control
% control (HCVpp entry), lysine scanning [6]: 37 % control and 28 % control
% control (HCVpp entry), lysine scanning [7]: 26 % control and 25 % control
% control (HCVpp entry), lysine scanning [8]: 26 % control and 29 % control
% of control at ~30 uM: 4%

A-I-K-W-E-A-V-L-L-L-F-L-L (AIKWEAVLLLFLL; HCV peptide) [SEQ ID NO: 91, Ala-scan]
% control (HCVpp entry), alanine scanning [1]: 101 % control and 73 % control and 107 % control and 89 % control and 93 % control and 111 % control
% control (HCVpp entry), alanine scanning [2]: 81 % control and 84 % control
% control (HCVpp entry), alanine scanning [3]: 120 % control and 102 % control
% control (HCVpp entry), alanine scanning [4]: 86 % control and 110 % control
% control (HCVpp entry), alanine scanning [5]: 59 % control and 66 % control
% control (HCVpp entry), alanine scanning [6]: 49 % control and 48 % control
% control (HCVpp entry), alanine scanning [7]: 35 % control and 32 % control
% control (HCVpp entry), alanine scanning [8]: 17 % control and 27 % control
% control (HCVpp entry), alanine scanning [9]: 30 % control and 15 % control
% control (HCVpp entry), alanine scanning [10]: 12 % control and 18 % control
% of control at ~30 uM: 16%

A-I-K-P-E-Y-V-L-L-L-F-L-L (AIKPEYVLLLFLL; HCV peptide) [SEQ ID NO: 118]
% control (HCVpp entry), proline scanning [1]: 87 % control and 80 % control and 108 % control and 103 % control and 79 % control and 110 % control
% control (HCVpp entry), proline scanning [2]: 92 % control and 101 % control
% control (HCVpp entry), proline scanning [3]: 99 % control and 74 % control
% control (HCVpp entry), proline scanning [4]: 84 % control and 108 % control
% control (HCVpp entry), proline scanning [5]: 83 % control and 116 % control
% control (HCVpp entry), proline scanning [6]: 93 % control and 63 % control
% control (HCVpp entry), proline scanning [7]: 53 % control and 47 % control
% control (HCVpp entry), proline scanning [8]: 29 % control and 38 % control
% control (HCVpp entry), proline scanning [10]: 33 % control and 24 % control

A-I-K-W-E-Y-V-L-L-L-F-P-L (AIKWEYVLLLFPL; HCV peptide) [SEQ ID NO: 126]
% control (HCVpp entry), proline scanning [1]: 83 % control and 66 % control and 89 % control and 87 % control and 104 % control and 119 % control
% control (HCVpp entry), proline scanning [2]: 88 % control and 91 % control
% control (HCVpp entry), proline scanning [3]: 88 % control and 93 % control
% control (HCVpp entry), proline scanning [4]: 98 % control and 89 % control
% control (HCVpp entry), proline scanning [5]: 86 % control and 76 % control
% control (HCVpp entry), proline scanning [6]: 83 % control and 82 % control
% control (HCVpp entry), proline scanning [7]: 68 % control and 81 % control
% control (HCVpp entry), proline scanning [8]: 72 % control and 85 % control
% control (HCVpp entry), proline scanning [9]: 43 % control and 44 % control
% control (HCVpp entry), proline scanning [10]: 55 % control and 80 % control

A-I-K-W-E-Y-V-L-L-L-P-L-L (AIKWEYVLLLPLL; HCV peptide) [SEQ ID NO: 125]
% control (HCVpp entry), proline scanning [1]: 99 % control and 91 % control and 92 % control and 111 % control and 101 % control and 95 % control
% control (HCVpp entry), proline scanning [2]: 104 % control
% control (HCVpp entry), proline scanning [3]: 99 % control and 75 % control
% control (HCVpp entry), proline scanning [4]: 82 % control and 85 % control
% control (HCVpp entry), proline scanning [5]: 109 % control and 97 % control
% control (HCVpp entry), proline scanning [6]: 102 % control and 80 % control
% control (HCVpp entry), proline scanning [7]: 58 % control and 60 % control
% control (HCVpp entry), proline scanning [8]: 76 % control and 63 % control
% control (HCVpp entry), proline scanning [9]: 54 % control and 73 % control
% control (HCVpp entry), proline scanning [10]: 59 % control and 68 % control

I-K-W-E-Y-V-L-L-L-F-L-L [SEQ ID NO: 107]
HCVpp % inh (truncated peptides tested at 50 uM in 1% DMSO): 88%

A-K-K-W-E-Y-V-L-L-L-E-L-L [SEQ ID NO: 102]
% control (HCVpp entry), lysine scanning [1]: 104 % control and 102 % control and 89 % control and 108 % control and 98 % control and 106 % control
% control (HCVpp entry), lysine scanning [2]: 141 % control and 107 % control
% control (HCVpp entry), lysine scanning [3]: 96 % control and 83 % control
% control (HCVpp entry), lysine scanning [4]: 70 % control and 66 % control
% control (HCVpp entry), lysine scanning [5]: 67 % control and 62 % control
% control (HCVpp entry), lysine scanning [6]: 33 % control and 41 % control
% control (HCVpp entry), lysine scanning [7]: 16 % control and 25 % control
% control (HCVpp entry), lysine scanning [8]: 29 % control and 23 % control
% of control at ~30 uM: 5%

LLFLLLVYEWKIA [retro]
viral entry as a percentage of the uninhibited control (0.1 nM of peptide (three lines)): 90%
viral entry as a percentage of the uninhibited control (0.1 nM of peptide (three lines), 0.0001 µM): 107%
viral entry as a percentage of the uninhibited control (0.3 nM of peptide, 0.0003 µM): 88% and 98% and 86% and 95% and 91%
viral entry as a percentage of the uninhibited control (1 nM of peptide, 0.001 µM): 94% and 86% and 97% and 81% and 51% and 88%
viral entry as a percentage of the uninhibited control (3 nM of peptide, 0.003 µM): 62% and 99% and 121% and 76% and 77% and 66%
viral entry as a percentage of the uninhibited control (10 nM of peptide, 0.01 µM): 52% and 95% and 93% and 81% and 68% and 77%
viral entry as a percentage of the uninhibited control (100 nM of peptide, 0.1 µM): 72% and 101% and 79% and 99% and 65% and 62%
viral entry as a percentage of the uninhibited control (30000 nM of peptide, 30 µM): 104% and 110% and 73% and 90% and 96% and 80%
activity compared to the wild type 13-mer peptide (HCVpp entry inhibition, in words): completely lost activity

A-I-K-W-E-Y-V-L-P-L-F-L-L (AIKWEYVLPLFLL; HCV peptide) [SEQ ID NO: 123]
% control (HCVpp entry), proline scanning [1]: 78 % control and 81 % control and 104 % control and 86 % control and 117 % control and 94 % control
% control (HCVpp entry), proline scanning [2]: 80 % control and 91 % control
% control (HCVpp entry), proline scanning [3]: 108 % control and 77 % control
% control (HCVpp entry), proline scanning [4]: 92 % control and 78 % control
% control (HCVpp entry), proline scanning [5]: 78 % control and 76 % control
% control (HCVpp entry), proline scanning [6]: 74 % control and 75 % control
% control (HCVpp entry), proline scanning [7]: 72 % control and 61 % control
% control (HCVpp entry), proline scanning [8]: 41 % control and 44 % control
% control (HCVpp entry), proline scanning [9]: 61 % control and 51 % control
% control (HCVpp entry), proline scanning [10]: 31 % control and 49 % control
